In ChEMBL document CHEMBL3879901, “Substituted isoquinolin-1(2H)-ones, and methods of use thereof” (2012):

Experiments:
[1] = Antiproliferative activity against Balb/c mouse splenic B cells preincubated for 30 mins followed by LPS or F(ab')2 donkey anti-mouse IgM and recombinant mouse IL4 stimulation measured after 72 hrs by Alamar Blue reduction assay; type: functional, cell-based
[2] = target: PI3-kinase p110-delta/p85-alpha (Homo sapiens, UniProt O00329); assay: Inhibition of N-terminal His6-tagged recombinant full-length human p110delta/untagged recombinant full length p85alpha expressed in baculovirus infected Sf21 cells using phosphatidylinositol as substrate in presence of gamma-32P-ATP after 5 mins by thin layer chromatographic method
[3] = target: Phosphatidylinositol 4,5-bisphosphate 3-kinase catalytic subunit gamma isoform (Homo sapiens, UniProt P48736); assay: Inhibition of recombinant human C-terminal His6-tagged p110gamma expressed in insect cells using phosphatidylinositol as substrate in presence of gamma-32P-ATP after 5 mins by thin layer chromatographic method
[4] = target: PI3-kinase p110-alpha/p85-alpha (Homo sapiens, UniProt P42336); assay: Inhibition of N-terminal His6-tagged recombinant full-length human p110alpha/untagged recombinant full length human p85alpha expressed in baculovirus infected Sf21 cells using phosphatidylinositol as substrate in presence of gamma-32P-ATP after 5 mins by thin layer chromatographic method
PI3K p110 beta/p85 alpha = PI3K p110 beta/p85 alpha (Homo sapiens, UniProt P42338); assay: Inhibition of N-terminal His6-tagged recombinant full-length human p110beta/untagged recombinant full length p85alpha expressed in baculovirus infected Sf21 cells using phosphatidylinositol as substrate in presence of gamma-32P-ATP after 5 mins by thin layer chromatographic method
PI3K p110 beta/p85 alpha, sequence (P27986 whole entry): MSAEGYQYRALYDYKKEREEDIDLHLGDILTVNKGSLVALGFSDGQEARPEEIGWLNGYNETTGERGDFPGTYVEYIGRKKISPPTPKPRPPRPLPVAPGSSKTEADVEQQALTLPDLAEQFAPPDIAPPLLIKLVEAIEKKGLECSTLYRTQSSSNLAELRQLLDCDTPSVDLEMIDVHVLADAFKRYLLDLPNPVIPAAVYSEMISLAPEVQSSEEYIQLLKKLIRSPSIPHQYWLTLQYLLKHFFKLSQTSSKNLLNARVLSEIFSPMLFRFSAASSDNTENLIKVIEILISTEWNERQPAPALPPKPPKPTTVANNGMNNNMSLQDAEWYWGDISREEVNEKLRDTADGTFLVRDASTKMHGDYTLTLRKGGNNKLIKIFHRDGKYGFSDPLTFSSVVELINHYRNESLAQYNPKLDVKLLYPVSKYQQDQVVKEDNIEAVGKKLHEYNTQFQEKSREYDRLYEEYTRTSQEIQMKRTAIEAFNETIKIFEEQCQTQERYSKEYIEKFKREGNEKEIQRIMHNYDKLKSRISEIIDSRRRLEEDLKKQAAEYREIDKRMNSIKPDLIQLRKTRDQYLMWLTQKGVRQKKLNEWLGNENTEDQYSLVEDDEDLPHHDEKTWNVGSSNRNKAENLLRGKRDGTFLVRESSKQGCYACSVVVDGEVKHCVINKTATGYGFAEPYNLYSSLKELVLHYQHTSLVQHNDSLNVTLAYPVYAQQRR
PI3K p110 beta/p85 alpha, sequence (P42338 whole entry): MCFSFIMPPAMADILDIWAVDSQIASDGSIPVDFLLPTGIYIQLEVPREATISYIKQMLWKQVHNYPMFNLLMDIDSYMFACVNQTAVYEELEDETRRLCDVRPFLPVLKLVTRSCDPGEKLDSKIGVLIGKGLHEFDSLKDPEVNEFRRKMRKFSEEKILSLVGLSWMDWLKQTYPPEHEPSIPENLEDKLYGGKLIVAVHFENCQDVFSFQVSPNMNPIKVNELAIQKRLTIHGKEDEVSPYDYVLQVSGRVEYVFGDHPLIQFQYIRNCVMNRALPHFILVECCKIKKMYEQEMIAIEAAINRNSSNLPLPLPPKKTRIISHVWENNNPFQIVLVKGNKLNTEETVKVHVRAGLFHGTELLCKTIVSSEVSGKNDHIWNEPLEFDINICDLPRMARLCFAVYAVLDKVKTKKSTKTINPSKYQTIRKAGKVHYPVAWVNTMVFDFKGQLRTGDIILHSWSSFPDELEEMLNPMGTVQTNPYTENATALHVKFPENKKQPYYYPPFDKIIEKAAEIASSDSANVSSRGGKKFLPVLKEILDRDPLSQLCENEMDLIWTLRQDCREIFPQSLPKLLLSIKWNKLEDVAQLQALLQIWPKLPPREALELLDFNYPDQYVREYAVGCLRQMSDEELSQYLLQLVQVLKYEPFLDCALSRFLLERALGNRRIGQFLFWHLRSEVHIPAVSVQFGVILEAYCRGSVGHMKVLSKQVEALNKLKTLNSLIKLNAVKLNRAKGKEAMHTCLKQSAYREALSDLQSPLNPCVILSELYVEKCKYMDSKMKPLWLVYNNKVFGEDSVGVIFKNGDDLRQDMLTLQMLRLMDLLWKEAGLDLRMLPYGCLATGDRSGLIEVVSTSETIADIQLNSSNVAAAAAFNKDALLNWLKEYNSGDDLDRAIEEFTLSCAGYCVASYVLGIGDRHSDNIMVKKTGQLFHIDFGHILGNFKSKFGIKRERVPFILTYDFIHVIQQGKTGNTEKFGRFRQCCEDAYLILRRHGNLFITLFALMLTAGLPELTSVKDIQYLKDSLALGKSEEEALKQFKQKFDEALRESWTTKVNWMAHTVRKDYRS

PI3-kinase p110-delta/p85-alpha, sequence (P27986 whole entry, canonical isoform): as the sequence (P27986 whole entry) above
PI3-kinase p110-delta/p85-alpha, sequence (O00329 whole entry, canonical isoform): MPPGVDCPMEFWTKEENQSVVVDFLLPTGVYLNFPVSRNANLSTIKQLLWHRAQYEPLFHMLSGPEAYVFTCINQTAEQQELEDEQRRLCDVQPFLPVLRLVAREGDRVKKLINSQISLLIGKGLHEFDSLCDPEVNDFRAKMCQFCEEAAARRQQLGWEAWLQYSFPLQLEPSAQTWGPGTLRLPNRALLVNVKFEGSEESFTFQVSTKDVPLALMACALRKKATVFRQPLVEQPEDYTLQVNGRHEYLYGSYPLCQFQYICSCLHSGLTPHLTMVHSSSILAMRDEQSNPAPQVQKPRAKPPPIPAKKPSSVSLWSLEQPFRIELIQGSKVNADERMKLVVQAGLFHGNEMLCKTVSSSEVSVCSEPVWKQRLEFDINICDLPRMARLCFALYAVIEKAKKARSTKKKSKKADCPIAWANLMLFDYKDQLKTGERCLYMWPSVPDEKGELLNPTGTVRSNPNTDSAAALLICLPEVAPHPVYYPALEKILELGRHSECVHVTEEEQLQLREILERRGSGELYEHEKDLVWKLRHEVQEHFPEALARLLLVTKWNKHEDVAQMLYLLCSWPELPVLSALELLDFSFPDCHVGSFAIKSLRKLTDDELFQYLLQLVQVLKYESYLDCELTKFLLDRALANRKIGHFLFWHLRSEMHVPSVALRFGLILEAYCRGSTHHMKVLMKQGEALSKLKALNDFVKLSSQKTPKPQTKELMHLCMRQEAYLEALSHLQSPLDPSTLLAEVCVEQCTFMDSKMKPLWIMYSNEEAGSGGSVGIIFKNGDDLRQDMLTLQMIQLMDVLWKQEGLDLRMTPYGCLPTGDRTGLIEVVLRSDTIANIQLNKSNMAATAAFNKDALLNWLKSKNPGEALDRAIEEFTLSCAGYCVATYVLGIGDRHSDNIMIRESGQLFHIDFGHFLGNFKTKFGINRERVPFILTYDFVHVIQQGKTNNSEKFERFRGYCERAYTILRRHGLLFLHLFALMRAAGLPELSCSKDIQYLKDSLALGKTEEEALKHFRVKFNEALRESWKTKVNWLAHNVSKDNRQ
PI3-kinase p110-alpha/p85-alpha, sequence (P27986 whole entry): as the sequence (P27986 whole entry) above
PI3-kinase p110-alpha/p85-alpha, sequence (P42336 whole entry): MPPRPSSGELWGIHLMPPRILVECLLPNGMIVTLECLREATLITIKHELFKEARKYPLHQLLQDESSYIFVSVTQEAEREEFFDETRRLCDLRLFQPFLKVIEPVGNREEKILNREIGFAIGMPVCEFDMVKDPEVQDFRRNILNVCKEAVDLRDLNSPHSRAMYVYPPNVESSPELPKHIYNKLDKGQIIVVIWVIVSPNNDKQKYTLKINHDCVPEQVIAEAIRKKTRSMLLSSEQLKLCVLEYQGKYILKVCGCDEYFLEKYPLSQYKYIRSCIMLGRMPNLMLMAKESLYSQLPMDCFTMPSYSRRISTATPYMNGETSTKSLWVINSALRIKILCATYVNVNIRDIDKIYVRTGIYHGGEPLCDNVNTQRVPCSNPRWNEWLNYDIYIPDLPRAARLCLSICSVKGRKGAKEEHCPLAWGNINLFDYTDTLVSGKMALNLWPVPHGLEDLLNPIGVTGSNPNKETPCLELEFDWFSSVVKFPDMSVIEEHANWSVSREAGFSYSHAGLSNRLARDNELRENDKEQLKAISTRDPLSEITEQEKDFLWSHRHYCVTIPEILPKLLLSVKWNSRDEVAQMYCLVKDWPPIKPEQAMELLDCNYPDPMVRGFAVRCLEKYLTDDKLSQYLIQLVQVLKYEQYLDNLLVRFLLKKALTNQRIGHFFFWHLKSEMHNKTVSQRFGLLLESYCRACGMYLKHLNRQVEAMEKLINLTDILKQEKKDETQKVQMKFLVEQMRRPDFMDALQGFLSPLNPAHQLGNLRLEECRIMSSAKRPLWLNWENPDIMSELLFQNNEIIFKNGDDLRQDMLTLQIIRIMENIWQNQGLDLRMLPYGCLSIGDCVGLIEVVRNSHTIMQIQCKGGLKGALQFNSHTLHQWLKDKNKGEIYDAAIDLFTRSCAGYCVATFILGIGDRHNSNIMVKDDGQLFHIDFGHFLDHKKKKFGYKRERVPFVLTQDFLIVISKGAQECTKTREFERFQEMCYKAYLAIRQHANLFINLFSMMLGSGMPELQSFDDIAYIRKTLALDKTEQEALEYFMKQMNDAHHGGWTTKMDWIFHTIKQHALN
Phosphatidylinositol 4,5-bisphosphate 3-kinase catalytic subunit gamma isoform, sequence (P48736 whole entry, canonical isoform): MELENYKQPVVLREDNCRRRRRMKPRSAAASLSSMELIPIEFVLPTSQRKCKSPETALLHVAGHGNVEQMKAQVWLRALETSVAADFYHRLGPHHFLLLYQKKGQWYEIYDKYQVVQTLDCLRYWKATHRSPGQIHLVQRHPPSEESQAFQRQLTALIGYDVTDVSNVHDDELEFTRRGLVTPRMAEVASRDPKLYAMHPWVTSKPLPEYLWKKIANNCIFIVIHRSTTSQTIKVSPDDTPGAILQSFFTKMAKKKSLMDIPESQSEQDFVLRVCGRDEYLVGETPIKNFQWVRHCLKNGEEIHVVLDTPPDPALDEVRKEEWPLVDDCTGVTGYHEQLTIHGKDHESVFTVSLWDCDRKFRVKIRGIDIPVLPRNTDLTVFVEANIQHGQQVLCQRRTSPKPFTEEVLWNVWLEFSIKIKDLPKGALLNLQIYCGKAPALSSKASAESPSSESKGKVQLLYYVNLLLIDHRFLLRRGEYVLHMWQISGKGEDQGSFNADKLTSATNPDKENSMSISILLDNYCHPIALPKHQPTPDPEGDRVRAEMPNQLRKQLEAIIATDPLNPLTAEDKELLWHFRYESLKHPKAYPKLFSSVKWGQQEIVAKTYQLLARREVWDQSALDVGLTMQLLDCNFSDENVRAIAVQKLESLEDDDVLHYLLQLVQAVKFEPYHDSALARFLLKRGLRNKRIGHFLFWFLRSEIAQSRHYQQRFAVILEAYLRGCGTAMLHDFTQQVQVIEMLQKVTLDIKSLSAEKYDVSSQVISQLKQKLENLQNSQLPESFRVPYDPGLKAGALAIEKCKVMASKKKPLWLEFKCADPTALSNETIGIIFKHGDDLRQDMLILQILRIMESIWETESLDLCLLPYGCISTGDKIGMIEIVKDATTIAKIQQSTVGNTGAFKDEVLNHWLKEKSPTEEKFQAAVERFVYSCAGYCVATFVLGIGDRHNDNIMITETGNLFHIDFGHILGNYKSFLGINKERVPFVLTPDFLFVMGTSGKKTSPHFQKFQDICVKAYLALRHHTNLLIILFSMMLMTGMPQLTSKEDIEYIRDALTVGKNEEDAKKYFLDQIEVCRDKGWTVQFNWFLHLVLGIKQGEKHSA

Structure (SMILES)	IC50 [2] [nM]	IC50 [3] [nM]	IC50 [4] [nM]	IC50 (PI3K p110 beta/p85 alpha) [nM]	EC50 [1] [nM]
Cc1cccc2cc([C@H](C)Nc3ncnc4[nH]nc(Cl)c34)n(-c3ccccc3)c(=O)c12	< 100	< 100	–	–	–
CCC(Nc1ncnc2[nH]cnc12)c1cc2cccc(C)c2c(=O)n1-c1ccc(F)cc1 (stereo unspecified)	< 100	< 100	–	–	< 100
Cc1ccccc1-n1c(Cn2nc(C(F)F)c3c(N)ncnc32)cc2cccc(C)c2c1=O	< 100	< 100	–	–	< 100
CCC(Nc1ncnc2[nH]cnc12)c1cc2cccc(C)c2c(=O)n1-c1ccccc1 (stereo unspecified)	< 100	< 100	–	–	< 100
Cc1cccc2cc([C@H](C)Nc3ncnc4[nH]cnc34)n(C(C)C)c(=O)c12	–	< 100	–	–	< 100
Cc1cccc2cc([C@H](C)Nc3ncnc4[nH]ccc34)n(-c3ccccc3)c(=O)c12	< 100	< 100	–	–	< 100
Cc1cccc2cc(Cn3nc(C#CC4CC4)c4c(N)ncnc43)n(-c3ccccc3F)c(=O)c12	< 1000	> 10000	–	–	< 1000
Cc1cccc2cc([C@H](C)Nc3ncnc4[nH]cnc34)n(C3CCC3)c(=O)c12	–	< 100	–	–	< 100
Cc1cccc2cc(Cn3nc(CF)c4c(N)ncnc43)n(-c3ccccc3)c(=O)c12	< 100	< 100	–	–	< 100
Cc1cccc2cc(C(C)Nc3ncnc4[nH]cnc34)n(-c3ccc(F)cc3)c(=O)c12 (stereo unspecified)	< 100	< 100	–	–	< 100
Cc1cccc2cc([C@H](C)Nc3nc(F)nc4[nH]cnc34)n(-c3ccccc3)c(=O)c12	< 100	< 100	–	–	< 100
CC(=O)Nc1nc2ccc(-c3nn(Cc4cc5cccc(C)c5c(=O)n4-c4ccccc4C)c4ncnc(N)c34)cc2o1	< 100	< 100	–	–	–
Cc1cccc2cc([C@H](C)Nc3nc(N)nc4[nH]cnc34)n(-c3ccccc3)c(=O)c12	< 100	< 100	–	–	–
Cc1ccccc1-n1c(Cn2nc(-c3cc(O)cc(F)c3)c3c(N)nccc32)cc2cccc(C)c2c1=O	< 100	–	< 10000	< 10000	< 100
CC(=O)Nc1nc2ccc(-c3nn(Cc4cc5cccc(C)c5c(=O)n4C4CC4)c4ncnc(N)c34)cc2s1	< 100	–	< 100000	< 100	< 100
Cc1ccccc1-n1c(Cn2nc(-c3ccc4nc(N)ccc4c3)c3c(N)ncnc32)cc2cccc(C)c2c1=O	< 100	–	< 1000	< 10000	< 100
CC(=O)Nc1nc2ccc(-c3nn(Cc4cc5cccc(F)c5c(=O)n4C(C)C)c4ncnc(N)c34)cc2s1	< 100	–	< 100000	< 10000	< 100
Cc1ccccc1-n1c(Cn2nc(-c3ccc4nc(N)sc4c3)c3c(N)ncnc32)cc2cccc(C)c2c1=O	< 100	–	< 1000	< 10000	< 1000
Cc1ccccc1-n1c(C(C)Nc2ncnc3[nH]cnc23)cc2cccc(C)c2c1=O (stereo unspecified)	< 100	–	> 10000	< 10000	< 100
Cc1cccc2cc([C@H](C)Nc3nc(N)ncc3C(F)(F)F)n(-c3ccccc3)c(=O)c12	< 100	< 100	–	–	–
Cc1cccc2cc(Cn3nc(I)c4c(N)ncnc43)n(-c3ccccc3O)c(=O)c12	< 100	–	> 10000	> 10000	< 1000
CC(=O)Nc1nc2ccc(-c3nn(Cc4cc5cccc(Cl)c5c(=O)n4C4CC4)c4ncnc(N)c34)cc2s1	< 100	–	< 100000	< 100	< 100
Cc1ccccc1-n1c(Cn2nc(-c3ccc4nc(N)ncc4c3)c3c(N)ncnc32)cc2cccc(C)c2c1=O	< 100	–	< 100000	< 1000	< 100
CC(=O)Nc1nc2ccc(-c3nn(Cc4cc5cccc(C)c5c(=O)n4C4CCC4)c4ncnc(N)c34)cc2s1	< 100	–	< 100000	< 1000	< 100
CC(=O)Nc1nc2ccc(-c3nn(Cc4cc5cccc(Cl)c5c(=O)n4C(C)C)c4ncnc(N)c34)cc2s1	< 100	–	< 100000	< 100	< 100
CC(=O)Nc1nc2ccc(-c3nn(Cc4cc5cccc(C)c5c(=O)n4-c4ccccc4)c4ncnc(N)c34)cc2[nH]1	–	< 100	–	–	–
Cc1cccc2cc([C@H](C)Nc3ncnc4[nH]cnc34)n(-c3cccc(F)c3)c(=O)c12	–	< 100	–	–	< 100
CC(=O)Nc1nc2ccc(-c3nn(Cc4cc5cccc(C)c5c(=O)n4-c4ccccc4)c4ncnc(N)c34)cc2s1	< 100	–	< 1000	< 10000	< 100
Cc1ccccc1-n1c(Cn2nc(C#C[C@H](C)O)c3c(N)ncnc32)cc2cccc(C)c2c1=O	< 1000	–	> 10000	< 10000	< 1000
CCc1ccccc1-n1c(Cn2nc(-c3cn[nH]c3)c3c(N)ncnc32)cc2cccc(C)c2c1=O	< 100	–	< 10000	< 10000	< 100

More lines, main results first:

IC50 [2] [nM]	IC50 [3] [nM]	IC50 [4] [nM]	IC50 (PI3K p110 beta/p85 alpha) [nM]	Structure (SMILES)	EC50 [1] [nM]
< 100	< 100	–	–	Cc1cccc2cc(Cn3nc(-c4ccc5sc(N)nc5c4)c4c(N)ncnc43)n(-c3ccccc3)c(=O)c12	< 100
–	100 to 1000	–	–	Cc1cccc2cc(Cn3nc(-c4ccc5nc(N)oc5c4)c4c(N)ncnc43)n(-c3ccccc3)c(=O)c12	< 10000
< 1000	< 10000	–	–	Cc1cccnc1-n1c(Cn2nc(-c3cccc(O)c3)c3c(N)ncnc32)cc2ccccc2c1=O	–
< 1000	–	> 10000	> 10000	Cc1cccc2cc(Cn3nc(-c4ccc(O)c(F)c4)c4c(N)ncnc43)n(-c3ccccc3F)c(=O)c12	< 1000
< 100	–	< 10000	< 10000	COc1ccccc1-n1c(Cn2nc(-c3cc(O)cc(F)c3)c3c(N)ncnc32)cc2cccc(C)c2c1=O	< 100
< 100	–	> 10000	< 10000	Cc1cccc2cc(Cn3nc(-c4cccc(O)c4)c4c(N)ncnc43)n(C3CCCCC3)c(=O)c12	< 1000
< 100	–	> 10000	< 10000	Cc1cccc2cc(Cn3nc(-c4cccc(O)c4)c4c(N)ncnc43)n(-c3ccccc3O)c(=O)c12	< 100
< 100	–	> 10000	> 10000	Cc1cccc2cc(Cn3nc(-c4cccc(O)c4)c4c(N)ncnc43)n(-c3ccccc3)c(=O)c12	< 100
< 100	–	> 10000	> 10000	Cc1ccccc1-n1c(Cn2nc(-c3ccc(F)c(O)c3)c3c(N)ncnc32)cc2ccccc2c1=O	< 100
< 100	–	> 10000	< 10000	Cc1cccnc1-n1c(Cn2nc(-c3ccc(Cl)c(O)c3)c3c(N)ncnc32)cc2cccc(C)c2c1=O	< 100
< 100	–	> 10000	< 10000	Cc1ccccc1-n1c(Cn2nc(-c3cccc(O)c3)c3c(N)ncnc32)cc2cccc(C)c2c1=O	< 100
< 1000	–	> 10000	> 10000	Cc1cccc2cc(Cn3nc(-c4ccc(O)c(Cl)c4)c4c(N)ncnc43)n(-c3ccccc3F)c(=O)c12	< 10000
< 100	< 100	–	–	Cc1cccnc1-n1c(Cn2nc(-c3ccc4oc(N)nc4c3)c3c(N)ncnc32)cc2cccc(C)c2c1=O	–
< 100	–	< 1000	< 10000	Cc1cccc2cc(Cn3nc(-c4cc(O)cc(F)c4)c4c(N)ncnc43)n(-c3ccccc3)c(=O)c12	< 100
< 100	–	> 10000	< 10000	Cc1cccc2cc(Cn3nc(-c4cccc(O)c4)c4c(N)ncnc43)n(C3CCC3)c(=O)c12	< 1000
< 100	–	> 10000	> 10000	CCc1ccccc1-n1c(Cn2nc(-c3cccc(O)c3)c3c(N)ncnc32)cc2cccc(C)c2c1=O	< 100
< 100	–	> 10000	< 10000	Cc1ccccc1-n1c(Cn2nc(-c3ccc(Cl)c(O)c3)c3c(N)ncnc32)cc2cccc(C)c2c1=O	< 100
< 100	–	< 1000	< 1000	Cc1cccc2cc(Cn3nc(-c4cccc(O)c4)c4c(N)ncnc43)n(C3CC3)c(=O)c12	< 100
< 100	–	< 10000	> 10000	Cc1ccccc1-n1c(Cn2nc(-c3ccc4ncnc(N)c4c3)c3c(N)ncnc32)cc2cccc(C)c2c1=O	< 1000
< 100	–	< 1000	< 1000	Cc1cccc2cc(Cn3nc(-c4cc(O)cc(F)c4)c4c(N)ncnc43)n(-c3ccccc3C(C)C)c(=O)c12	< 100
< 100	–	< 10000	< 10000	Cc1cccc2cc(Cn3nc(-c4cc(O)cc(F)c4)c4c(N)ncnc43)n(-c3ccccc3F)c(=O)c12	< 100
< 100	–	> 10000	< 10000	Cc1ccccc1-n1c(Cn2nc(-c3ccc(O)c(Cl)c3)c3c(N)ncnc32)cc2cccc(C)c2c1=O	< 1000
